Tested on: severe traumatic brain injury (sTBI)
Assay: sTBI in rats, brain gene expression arrays and pathway analysis (Example 9)
Assay type: in vivo, Male Wistar rats
Conditions: TBI + 5 mg/kg LMW-DS
Protocol: The experimental protocol used in this study was approved by the Ethical Committee of the Catholic University of Rome, according to international standards and guidelines for animal care. Male Wistar rats of 300-350 g body weight were fed with standard laboratory diet and water ad libitum in a controlled environment. As the anesthetic mixture, the animals received 35 mg/kg b.w. ketamine and 0.25 mg/kg body weight midazolam by i.p. injection. Severe traumatic brain injury (sTBI) was induced by dropping a 450 g weight from 2 m height on to the rat head that had been protected by a metal disk previously fixed on the skull, according to the “weight drop” impact acceleration model (Marmarou et al., A new model of diffuse brain injury in rats. Part I: Pathophysiology and biomechanics. J Neurosurg. 1994; 80: 291-300). […] At the end of each period of treatment, rats were anesthetized again and then immediately sacrificed.
LMW-DS (Tikomed AB) was provided at a stock concentration of 20 mg/ml and was kept in a temperature-monitored refrigerator at 4° C. LMW-DS aliquots were diluted to the appropriate dosing concentration in sterile saline prior to delivery of a single subcutaneous injection.
Three doses of LMW-DS were administered subcutaneously 30 minutes post-TBI. The animals were sacrificed at 2 days post-TBI. The animals were divided into the following subgroups:
Three doses of LMW-DS were administered subcutaneously 30 minutes post-TBI. The animals were sacrificed at 7 days post-TBI. The animals were divided into the following subgroups:
An in vivo craniectomy was performed on all animals during anesthesia. After carefully removing the rat's skull, the brain was exposed and removed with a surgical spatula and quickly dropped in RNALater and preserved at 4° C. for further processing.
RNA extraction and array processing was carried out by SourceBioscience. The arrays used were the Agilent Rat expression arrays.
Statistical analysis was carried out using the Metaboanalyst software package. Gene expression changes of 10% with a p<0.05 were regarded as significant.
Pathway analysis of the differentially regulated genes was carried out using the Ingenuity pathway analysis package. The analysis was performed with special reference to pathways and molecular processes and diseases associated with neurodegenerative disease, including dementia, Alzheimer's disease, ALS, TBI and stroke, and with scarring and fibrosis, including glaucoma and normal pressure hydrocephalus (NPH) after subarachnoid haemorrhage.

Q: How did the “Diseases or functions annotation: Apoptosis” value (2 days after TBI) turn out when “low molecular weight dextran sulfate [LMW-DS]” was run?
A: Activated

Q: And the “Diseases or functions annotation: Behavior” value (2 days after TBI)?
A: Inhibited

Q: What about the “Diseases or functions annotation: Carcinoma” value (2 days after TBI) of the same substance?
A: Inhibited

Q: And the “Diseases or functions annotation: Cell death” value (2 days after TBI)?
A: Activated

Q: And the “Diseases or functions annotation: Cell death of antigen presenting cells” value (2 days after TBI)?
A: Inhibited

Q: And the “Diseases or functions annotation: Cell death of immune cells” value (2 days after TBI)?
A: Inhibited

Q: What about the “Diseases or functions annotation: Cell death of tumor cell lines” value (2 days after TBI) of the same substance?
A: Inhibited

Q: And the “Diseases or functions annotation: Cell movement” value (2 days after TBI)?
A: Inhibited

Q: And the “Diseases or functions annotation: Cell movement of tumor cell lines” value (2 days after TBI)?
A: Inhibited

Q: What about the “Diseases or functions annotation: Cell proliferation of leukocyte cell lines” value (2 days after TBI) of the same substance?
A: Inhibited

Q: What about the “Diseases or functions annotation: Cellular homeostasis” value (2 days after TBI) of the same substance?
A: Inhibited

Q: And the “Diseases or functions annotation: Chemotaxis” value (2 days after TBI)?
A: Inhibited

Q: And the “Diseases or functions annotation: Concentration of prostaglandin” value (2 days after TBI)?
A: Inhibited

Q: What about the “Diseases or functions annotation: Development of vasculature” value (2 days after TBI) of the same substance?
A: Inhibited

Q: And the “Diseases or functions annotation: Digestive organ tumor” value (2 days after TBI)?
A: Inhibited

Q: What about the “Diseases or functions annotation: Digestive system cancer” value (2 days after TBI) of the same substance?
A: Inhibited

Q: And the “Diseases or functions annotation: Edema” value (2 days after TBI)?
A: Activated

Q: And the “Diseases or functions annotation: Epithelial neoplasm” value (2 days after TBI)?
A: Inhibited

Q: And the “Diseases or functions annotation: Extracranial solid tumor” value (2 days after TBI)?
A: Inhibited

Q: What about the “Diseases or functions annotation: Feeding” value (2 days after TBI) of the same substance?
A: Inhibited

Q: And the “Diseases or functions annotation: Growth of tumor” value (2 days after TBI)?
A: Inhibited

Q: What about the “Diseases or functions annotation: Hematologic cancer” value (2 days after TBI) of the same substance?
A: Inhibited

Q: And the “Diseases or functions annotation: Incidence of tumor” value (2 days after TBI)?
A: Inhibited

Q: What about the “Diseases or functions annotation: Leukocyte migration” value (2 days after TBI) of the same substance?
A: Inhibited

Q: And the “Diseases or functions annotation: Leukopoiesis” value (2 days after TBI)?
A: Inhibited

Q: And the “Diseases or functions annotation: Locomotion” value (2 days after TBI)?
A: Inhibited

Q: And the “Diseases or functions annotation: Lymphocyte homeostasis” value (2 days after TBI)?
A: Inhibited

Q: And the “Diseases or functions annotation: Lymphocytic cancer” value (2 days after TBI)?
A: Inhibited

Q: And the “Diseases or functions annotation: Lymphocytic neoplasm” value (2 days after TBI)?
A: Inhibited

Q: And the “Diseases or functions annotation: Lymphopoiesis” value (2 days after TBI)?
A: Inhibited

Q: What about the “Diseases or functions annotation: Lymphoproliferative disorder” value (2 days after TBI) of the same substance?
A: Inhibited

Q: And the “Diseases or functions annotation: Malignant solid tumor” value (2 days after TBI)?
A: Inhibited

Q: And the “Diseases or functions annotation: Metabolism of hormone” value (2 days after TBI)?
A: Inhibited

Q: What about the “Diseases or functions annotation: Migration of cells” value (2 days after TBI) of the same substance?
A: Inhibited

Q: What about the “Diseases or functions annotation: Necrosis” value (2 days after TBI) of the same substance?
A: Inhibited

Q: What about the “Diseases or functions annotation: Neoplasia of leukocytes” value (2 days after TBI) of the same substance?
A: Inhibited

Q: What about the “Diseases or functions annotation: Non-melanoma solid tumor” value (2 days after TBI) of the same substance?
A: Inhibited

Q: And the “Diseases or functions annotation: Proliferation of hematopoietic progenitor cells” value (2 days after TBI)?
A: Inhibited

Q: What about the “Diseases or functions annotation: Quantity of cells” value (2 days after TBI) of the same substance?
A: Inhibited

Q: What about the “Diseases or functions annotation: Quantity of epithelial tissue” value (2 days after TBI) of the same substance?
A: Inhibited

Q: And the “Diseases or functions annotation: Quantity of neuroglia” value (2 days after TBI)?
A: Inhibited

Q: And the “Diseases or functions annotation: Resorption of bone” value (2 days after TBI)?
A: Inhibited

Q: And the “Diseases or functions annotation: Secretion of molecule” value (2 days after TBI)?
A: Activated

Q: And the “Diseases or functions annotation: Size of body” value (2 days after TBI)?
A: Inhibited

Q: And the “Diseases or functions annotation: Synthesis of hormone” value (2 days after TBI)?
A: Inhibited

Q: What about the “Diseases or functions annotation: Transcription of RNA” value (2 days after TBI) of the same substance?
A: Inhibited

Q: And the “Diseases or functions annotation: Transport of molecule” value (2 days after TBI)?
A: Activated

Q: What about the “Diseases or functions annotation: Vasculogenesis” value (2 days after TBI) of the same substance?
A: Inhibited

Q: What about the “Ingenuity canonical pathway: Acute Phase Response Signaling” value (7 days after TBI) of the same substance?
A: Activated

Q: What about the “Ingenuity canonical pathway: Adrenomedullin signaling pathway” value (7 days after TBI) of the same substance?
A: Inhibited

Q: And the “Ingenuity canonical pathway: Cardiac Hypertrophy Signaling” value (7 days after TBI)?
A: Activated

Q: What about the “Ingenuity canonical pathway: Colorectal Cancer Metastasis Signaling” value (7 days after TBI) of the same substance?
A: Inhibited

Q: What about the “Ingenuity canonical pathway: Dendritic Cell Maturation” value (7 days after TBI) of the same substance?
A: Activated

Q: And the “Ingenuity canonical pathway: ERK5 Signaling” value (7 days after TBI)?
A: Inhibited

Q: And the “Ingenuity canonical pathway: ERK/MAPK Signaling” value (7 days after TBI)?
A: Activated

Q: What about the “Ingenuity canonical pathway: Endothelin-1 Signaling” value (7 days after TBI) of the same substance?
A: Activated

Q: What about the “Ingenuity canonical pathway: Fcγ Receptor-mediated Phagocytosis in Macrophages and Monocytes” value (7 days after TBI) of the same substance?
A: Activated

Q: What about the “Ingenuity canonical pathway: GNRH Signaling” value (7 days after TBI) of the same substance?
A: Activated

Q: And the “Ingenuity canonical pathway: HMGB1 Signaling” value (7 days after TBI)?
A: Activated

Q: And the “Ingenuity canonical pathway: IL-1 Signaling” value (7 days after TBI)?
A: Activated

Q: And the “Ingenuity canonical pathway: IL-6 Signaling” value (7 days after TBI)?
A: Activated

Q: What about the “Ingenuity canonical pathway: IL-8 Signaling” value (7 days after TBI) of the same substance?
A: Activated

Q: What about the “Ingenuity canonical pathway: ILK Signaling” value (7 days after TBI) of the same substance?
A: Activated

Q: What about the “Ingenuity canonical pathway: Leukocyte Extravasation Signaling” value (7 days after TBI) of the same substance?
A: Activated

Q: And the “Ingenuity canonical pathway: Neuroinflammation Signaling Pathway” value (7 days after TBI)?
A: Activated

Q: What about the “Ingenuity canonical pathway: Osteoarthritis Pathway” value (7 days after TBI) of the same substance?
A: Inhibited

Q: And the “Ingenuity canonical pathway: PI3K Signaling in B Lymphocytes” value (7 days after TBI)?
A: Activated

Q: And the “Ingenuity canonical pathway: PKCθ Signaling in T Lymphocytes” value (7 days after TBI)?
A: Activated

Q: And the “Ingenuity canonical pathway: PPAR Signaling” value (7 days after TBI)?
A: Inhibited

Q: What about the “Ingenuity canonical pathway: Phospholipase C Signaling” value (7 days after TBI) of the same substance?
A: Activated

Q: What about the “Ingenuity canonical pathway: Production of Nitric Oxide and Reactive Oxygen Species in Macrophages” value (7 days after TBI) of the same substance?
A: Activated

Q: And the “Ingenuity canonical pathway: Protein Kinase A Signaling” value (7 days after TBI)?
A: Inhibited

Q: What about the “Ingenuity canonical pathway: Role of NFAT in Regulation of the Immune Response” value (7 days after TBI) of the same substance?
A: Activated

Q: What about the “Ingenuity canonical pathway: Signaling by Rho Family GTPases” value (7 days after TBI) of the same substance?
A: Activated

Q: What about the “Ingenuity canonical pathway: Synaptic Long Term Depression” value (7 days after TBI) of the same substance?
A: Activated

Q: And the “Ingenuity canonical pathway: Wnt/β-catenin Signaling” value (7 days after TBI)?
A: Inhibited

Q: What about the “Ingenuity canonical pathway: cAMP-mediated signaling” value (7 days after TBI) of the same substance?
A: Inhibited

Q: And the “Ingenuity canonical pathway: mTOR Signaling” value (7 days after TBI)?
A: Activated

Q: And the “z score: Abdominal adenocarcinoma” value (7 days after TBI)?
A: 0.73

Q: What about the “z score: Abdominal cancer” value (7 days after TBI) of the same substance?
A: −0.474

Q: What about the “z score: Abdominal carcinoma” value (7 days after TBI) of the same substance?
A: −0.831

Q: And the “z score: Abdominal neoplasm” value (7 days after TBI)?
A: 0.061

Q: What about the “z score: Adenocarcinoma” value (7 days after TBI) of the same substance?
A: −0.155

Q: And the “z score: Angiogenesis” value (7 days after TBI)?
A: 0.294

Q: And the “z score: Apoptosis” value (7 days after TBI)?
A: −0.676

Q: And the “z score: Apoptosis of tumor cell lines” value (7 days after TBI)?
A: −0.941

Q: And the “z score: Bleeding” value (7 days after TBI)?
A: −2.118

Q: And the “z score: Breast or colorectal cancer” value (7 days after TBI)?
A: −1.953

Q: And the “z score: Breast or ovarian cancer” value (7 days after TBI)?
A: −1.953

Q: What about the “z score: Breast or pancreatic cancer” value (7 days after TBI) of the same substance?
A: −1.026

Q: And the “z score: Cancer” value (7 days after TBI)?
A: 0.905

Q: What about the “z score: Cancer of cells” value (7 days after TBI) of the same substance?
A: 0.742

Q: And the “z score: Cancer of secretory structure” value (7 days after TBI)?
A: 0.64

Q: What about the “z score: Carcinoma” value (7 days after TBI) of the same substance?
A: −0.403

Q: And the “z score: Cell cycle progression” value (7 days after TBI)?
A: 1.58

Q: What about the “z score: Cell death” value (7 days after TBI) of the same substance?
A: 0.791

Q: And the “z score: Cell death of epithelial cells” value (7 days after TBI)?
A: 1.993

Q: What about the “z score: Cell death of tumor cell lines” value (7 days after TBI) of the same substance?
A: −0.811

Q: And the “z score: Cell movement” value (7 days after TBI)?
A: 2.297

Q: What about the “z score: Cell movement of endothelial cells” value (7 days after TBI) of the same substance?
A: 2.084

Q: And the “z score: Cell movement of myeloid cells” value (7 days after TBI)?
A: 3.907

Q: What about the “z score: Cell movement of tumor cell lines” value (7 days after TBI) of the same substance?
A: 1.492

Q: And the “z score: Cell survival” value (7 days after TBI)?
A: 1.966

Q: What about the “z score: Cell viability” value (7 days after TBI) of the same substance?
A: 1.879

Q: And the “z score: Cell viability of tumor cell lines” value (7 days after TBI)?
A: 0.991
